{
  "source": "patent US20030201224A1",
  "about": "“Microbial consortium for the biodegradation of dithiocarbamates” (priority 2002, published 2003)",
  "key": {"[1]": {"test_system": "consortium", "assay": "Degradation of other N-alkyl dithiocarbamates by the consortium (1000 ml bioreactor)", "settings": "pH 7.2, 20-27° C.", "protocol": "A 1000 ml bioreactor containing the synthetic medium (described above) has been inoculated with the consortium density of approximately 1.1×10^7 ml. The initial pH value was 7.2 and the temperature varied between 20-27° C. Dithiocarbamate concentration was measured spectrophometrically by complexing with cupric acetate and measuring the absorbance at 430 nm."}, "[2]": {"test_system": "microbial consortium", "settings": "soil", "experimental": "One soil environment was inoculated with approximately 1.2×10^7 consortium members/g soil while the other remained uninoculated. Nitrogen and phosphorus was added to both systems. The initial soil pH was 6.8 and the temperature varied from 18° C. to 27° C. Water was added to maintain the dry weight at about 30%. Each soil system was mixed weekly to provide aeration."}, "[3]": {"test_system": "consortium", "settings": "within 72 hour; waste wash-water about 1100 ppm SDM and dilution at 500 ppm, pH 7.8; 20% inoculum of 72 h consortium", "experimental": "The sample, and a dilution of it at 500 ppm and pH 7.8, was inoculated with a 20% (VN) amount of a 72 h consortium. A control without inoculation was included."}},
  "note": "Read-outs that look alike come from different tables or passages of the source.",
  "data": [
    {"smiles": "CCCN(CCC)C(=S)[S-].[Na+]", "note": "[DiPropyl Dithiocarbamate, Sodium Dipropyl dithiocarbamates]", "values": [
      {"measurement": "% degradation (percent loss over the abiotic Control)", "setting": "[1]; time 0 h", "result": 3.99, "unit": "%"},
      {"measurement": "% degradation (percent loss over the abiotic Control)", "setting": "[1]; time 0.5 h", "result": 3.87, "unit": "%"},
      {"measurement": "% degradation (percent loss over the abiotic Control)", "setting": "[1]; time 1.5 h", "result": 4.21, "unit": "%"},
      {"measurement": "% degradation (percent loss over the abiotic Control)", "setting": "[1]; time 4 h", "result": 3.56, "unit": "%"},
      {"measurement": "% degradation (percent loss over the abiotic Control)", "setting": "[1]; time 5 h", "result": 3.49, "unit": "%"},
      {"measurement": "% degradation (percent loss over the abiotic Control)", "setting": "[1]; time 7 h", "result": 4.37, "unit": "%"},
      {"measurement": "% degradation (percent loss over the abiotic Control)", "setting": "[1]; time 27 h", "result": 7.82, "unit": "%"},
      {"measurement": "% degradation (percent loss over the abiotic Control)", "setting": "[1]; time 51 h", "result": 9.43, "unit": "%"},
      {"measurement": "% degradation (percent loss over the abiotic Control)", "setting": "[1]; time 73 h", "result": 11.24, "unit": "%"},
      {"measurement": "% degradation (percent loss over the abiotic Control)", "setting": "[1]; time 96 h", "result": 14.56, "unit": "%"}
    ]},
    {"smiles": "CCCCN(CCCC)C(=S)[S-].[Na+]", "note": "[Dibutyl Dithiocarbamate, Sodium Dibutyl dithiocarbamates]", "values": [
      {"measurement": "% degradation (percent loss over the abiotic Control)", "setting": "[1]; time 0 h", "result": 4.44, "unit": "%"},
      {"measurement": "% degradation (percent loss over the abiotic Control)", "setting": "[1]; time 0.5 h", "result": 4.70, "unit": "%"},
      {"measurement": "% degradation (percent loss over the abiotic Control)", "setting": "[1]; time 1.5 h", "result": 4.10, "unit": "%"},
      {"measurement": "% degradation (percent loss over the abiotic Control)", "setting": "[1]; time 4 h", "result": 3.81, "unit": "%"},
      {"measurement": "% degradation (percent loss over the abiotic Control)", "setting": "[1]; time 5 h", "result": 3.98, "unit": "%"},
      {"measurement": "% degradation (percent loss over the abiotic Control)", "setting": "[1]; time 7 h", "result": 4.12, "unit": "%"},
      {"measurement": "% degradation (percent loss over the abiotic Control)", "setting": "[1]; time 27 h", "result": 6.11, "unit": "%"},
      {"measurement": "% degradation (percent loss over the abiotic Control)", "setting": "[1]; time 51 h", "result": 6.66, "unit": "%"},
      {"measurement": "% degradation (percent loss over the abiotic Control)", "setting": "[1]; time 73 h", "result": 7.93, "unit": "%"},
      {"measurement": "% degradation (percent loss over the abiotic Control)", "setting": "[1]; time 96 h", "result": 9.46, "unit": "%"}
    ]},
    {"smiles": "CCN(CC)C(=S)S", "note": "[Diethyl Dithiocarbamate, sodium diethyl dithiocarbamate]", "values": [
      {"measurement": "% degradation (percent loss over the abiotic Control)", "setting": "[1]; time 0 h", "result": 3.28, "unit": "%"},
      {"measurement": "% degradation (percent loss over the abiotic Control)", "setting": "[1]; time 0.5 h", "result": 2.80, "unit": "%"},
      {"measurement": "% degradation (percent loss over the abiotic Control)", "setting": "[1]; time 1.5 h", "result": 8.78, "unit": "%"},
      {"measurement": "% degradation (percent loss over the abiotic Control)", "setting": "[1]; time 4 h", "result": 8.18, "unit": "%"},
      {"measurement": "% degradation (percent loss over the abiotic Control)", "setting": "[1]; time 5 h", "result": 13.29, "unit": "%"},
      {"measurement": "% degradation (percent loss over the abiotic Control)", "setting": "[1]; time 7 h", "result": 15.01, "unit": "%"},
      {"measurement": "% degradation (percent loss over the abiotic Control)", "setting": "[1]; time 27 h", "result": 18.00, "unit": "%"},
      {"measurement": "% degradation (percent loss over the abiotic Control)", "setting": "[1]; time 51 h", "result": 21.00, "unit": "%"},
      {"measurement": "% degradation (percent loss over the abiotic Control)", "setting": "[1]; time 73 h", "result": 23.00, "unit": "%"},
      {"measurement": "% degradation (percent loss over the abiotic Control)", "setting": "[1]; time 96 h", "result": 25.07, "unit": "%"}
    ]},
    {"smiles": "CN(C)C(=S)[S-].[Na+]", "note": "[SDM, Sodium dimethyl dithiocarbamate]", "values": [
      {"measurement": "PERCENT degradation of SDM", "setting": "[2]; 100 mg SDM per kg soil, 1 d", "result": 1.6, "unit": "%"},
      {"measurement": "PERCENT degradation of SDM", "setting": "[2]; 100 mg SDM per kg soil, 3 d", "result": 18.3, "unit": "%"},
      {"measurement": "PERCENT degradation of SDM", "setting": "[2]; 100 mg SDM per kg soil, 7 d", "result": 50.2, "unit": "%"},
      {"measurement": "PERCENT degradation of SDM", "setting": "[2]; 500 mg SDM per kg soil, 1 d", "result": 6.2, "unit": "%"},
      {"measurement": "PERCENT degradation of SDM", "setting": "[2]; 500 mg SDM per kg soil, 3 d", "result": 22.6, "unit": "%"},
      {"measurement": "PERCENT degradation of SDM", "setting": "[2]; 500 mg SDM per kg soil, 7 d", "result": 63, "unit": "%"},
      {"measurement": "PERCENT degradation of SDM", "setting": "[2]; 1000 mg SDM per kg soil, 1 d", "result": 4.8, "unit": "%"},
      {"measurement": "PERCENT degradation of SDM", "setting": "[2]; 1000 mg SDM per kg soil, 3 d", "result": 16.3, "unit": "%"},
      {"measurement": "PERCENT degradation of SDM", "setting": "[2]; 1000 mg SDM per kg soil, 7 d", "result": 39.7, "unit": "%"},
      {"measurement": "PERCENT degradation of SDM", "setting": "[2]; 1000 mg SDM per kg soil, 10 d", "result": 48, "unit": "%"},
      {"measurement": "PERCENT degradation of SDM", "setting": "[2]; 1000 mg SDM per kg soil, 14 d", "result": 72, "unit": "%"},
      {"measurement": "PERCENT degradation of SDM", "setting": "[2]; 1000 mg SDM per kg soil, 20 d", "result": 76, "unit": "%"},
      {"measurement": "PERCENT degradation of SDM", "setting": "[2]; 2000 mg SDM per kg soil, 1 d", "result": 3.9, "unit": "%"},
      {"measurement": "PERCENT degradation of SDM", "setting": "[2]; 2000 mg SDM per kg soil, 3 d", "result": 12.4, "unit": "%"},
      {"measurement": "PERCENT degradation of SDM", "setting": "[2]; 2000 mg SDM per kg soil, 7 d", "result": 26.7, "unit": "%"},
      {"measurement": "PERCENT degradation of SDM", "setting": "[2]; 2000 mg SDM per kg soil, 10 d", "result": 32.1, "unit": "%"},
      {"measurement": "PERCENT degradation of SDM", "setting": "[2]; 2000 mg SDM per kg soil, 14 d", "result": 47.6, "unit": "%"},
      {"measurement": "PERCENT degradation of SDM", "setting": "[2]; 2000 mg SDM per kg soil, 20 d", "result": 54, "unit": "%"},
      {"measurement": "PERCENT degradation of SDM", "setting": "[2]; 2000 mg SDM per kg soil, 28 d", "result": 58, "unit": "%"},
      {"measurement": "PERCENT degradation of SDM", "setting": "[2]; 5000 mg SDM per kg soil, 1 d", "result": 5.2, "unit": "%"},
      {"measurement": "PERCENT degradation of SDM", "setting": "[2]; 5000 mg SDM per kg soil, 3 d", "result": 3.1, "unit": "%"},
      {"measurement": "PERCENT degradation of SDM", "setting": "[2]; 5000 mg SDM per kg soil, 7 d", "result": 2.3, "unit": "%"},
      {"measurement": "PERCENT degradation of SDM", "setting": "[2]; 5000 mg SDM per kg soil, 10 d", "result": 1.8, "unit": "%"},
      {"measurement": "PERCENT degradation of SDM", "setting": "[2]; 5000 mg SDM per kg soil, 14 d", "result": 3.6, "unit": "%"},
      {"measurement": "PERCENT degradation of SDM", "setting": "[2]; 5000 mg SDM per kg soil, 20 d", "result": 1.8, "unit": "%"},
      {"measurement": "PERCENT degradation of SDM", "setting": "[2]; 5000 mg SDM per kg soil, 28 d", "result": 3.2, "unit": "%"},
      {"measurement": "% degradation (percent loss over the abiotic Control)", "setting": "[1]; time 0.5 h", "result": 8.1, "unit": "%"},
      {"measurement": "% degradation (percent loss over the abiotic Control)", "setting": "[1]; time 1.5 h", "result": 9.5, "unit": "%"},
      {"measurement": "% degradation (percent loss over the abiotic Control)", "setting": "[1]; time 4 h", "result": 12.3, "unit": "%"},
      {"measurement": "% degradation (percent loss over the abiotic Control)", "setting": "[1]; time 5 h", "result": 12.1, "unit": "%"},
      {"measurement": "% degradation (percent loss over the abiotic Control)", "setting": "[1]; time 7 h", "result": 27.1, "unit": "%"},
      {"measurement": "% degradation (percent loss over the abiotic Control)", "setting": "[1]; time 27 h", "result": 61.4, "unit": "%"},
      {"measurement": "% degradation (percent loss over the abiotic Control)", "setting": "[1]; time 51 h", "result": 77.8, "unit": "%"},
      {"measurement": "% degradation (percent loss over the abiotic Control)", "setting": "[1]; time 73 h", "result": 88.7, "unit": "%"},
      {"measurement": "% degradation (percent loss over the abiotic Control)", "setting": "[1]; time 96 h", "result": 97.5, "unit": "%"},
      {"measurement": "SDM degraded by the consortium", "setting": "[3]", "result": "~100", "unit": "%"}
    ]}
  ]
}
